Patent publication US20140243335A1, “SUBSTITUTED HYDOXAMIC ACIDS AND USES THEREOF” (Millennium Pharmaceuticals, Inc., priority 2010, published 2014)

These compounds were tested against T1, purified human HDAC6 (Homo sapiens, UniProt Q9UBN7) (assay: HDAC6 Enzyme Assay). Conditions: HDAC6 inhibition at a compound concentration of 0.412 μM; read-out: Percent Inhibition at 0.412 μM.
T1 construct: purchased BPS Bioscience 5006
T1 sequence (Q9UBN7 1-1215): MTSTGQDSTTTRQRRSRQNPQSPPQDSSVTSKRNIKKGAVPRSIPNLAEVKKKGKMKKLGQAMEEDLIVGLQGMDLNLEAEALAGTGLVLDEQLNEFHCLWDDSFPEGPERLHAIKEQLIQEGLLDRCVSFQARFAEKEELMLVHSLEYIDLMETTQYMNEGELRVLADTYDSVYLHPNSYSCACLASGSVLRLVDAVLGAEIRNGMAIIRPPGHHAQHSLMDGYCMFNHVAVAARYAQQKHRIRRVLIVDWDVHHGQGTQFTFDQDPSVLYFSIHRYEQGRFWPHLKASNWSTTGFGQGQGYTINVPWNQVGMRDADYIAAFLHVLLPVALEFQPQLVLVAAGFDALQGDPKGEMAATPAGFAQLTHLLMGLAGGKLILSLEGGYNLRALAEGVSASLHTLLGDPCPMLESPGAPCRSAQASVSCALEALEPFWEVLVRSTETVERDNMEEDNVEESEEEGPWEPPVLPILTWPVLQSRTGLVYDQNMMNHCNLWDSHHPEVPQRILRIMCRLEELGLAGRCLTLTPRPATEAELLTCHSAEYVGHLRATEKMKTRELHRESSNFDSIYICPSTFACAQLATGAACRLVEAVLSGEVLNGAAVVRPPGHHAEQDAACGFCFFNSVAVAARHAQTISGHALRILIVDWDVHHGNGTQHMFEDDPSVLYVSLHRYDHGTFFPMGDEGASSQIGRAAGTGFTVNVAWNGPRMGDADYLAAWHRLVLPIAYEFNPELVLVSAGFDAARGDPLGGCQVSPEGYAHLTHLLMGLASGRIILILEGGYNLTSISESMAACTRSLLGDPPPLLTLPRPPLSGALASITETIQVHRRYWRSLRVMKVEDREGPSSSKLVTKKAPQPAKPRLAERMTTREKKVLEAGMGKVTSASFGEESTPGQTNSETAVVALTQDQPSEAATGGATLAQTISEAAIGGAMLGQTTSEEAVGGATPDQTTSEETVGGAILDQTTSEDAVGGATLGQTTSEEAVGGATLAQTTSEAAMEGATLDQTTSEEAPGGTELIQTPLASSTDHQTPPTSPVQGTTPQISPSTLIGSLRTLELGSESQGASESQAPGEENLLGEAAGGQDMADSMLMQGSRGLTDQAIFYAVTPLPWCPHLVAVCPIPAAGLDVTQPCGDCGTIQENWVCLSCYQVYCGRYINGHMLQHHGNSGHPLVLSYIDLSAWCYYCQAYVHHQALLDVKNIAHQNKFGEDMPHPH
Assay type: biochemical
Procedure: To measure the inhibition of HDAC6 activity, purified human HDAC6 (BPS Bioscience; Cat. No. 5006) is incubated with substrate Ac-Arg-Gly-Lys(Ac)-AMC peptide (Bachem Biosciences; Cat. No. I-1925) for 1 hour at 30° C. in the presence of test compounds or vehicle DMSO control. The reaction is stopped with the HDAC inhibitor trichostatin A (Sigma; Cat. No. T8552) and the amount of Arg-Gly-Lys-AMC generated is quantitated by digestion with trypsin (Sigma; Cat. No. T1426) and subsequent measurement of the amount of AMC released using a fluorescent plate reader (Pherastar; BMG Technologies) set at Ex 340 nm and Em 460 nm. Concentration response curves are generated by calculating the fluorescence increase in test compound-treated samples relative to DMSO-treated controls, and enzyme inhibition (IC50) values are determined from those curves.

SMILES	inhibition at 0.412 µM [%]
CCN1CCC(C)(C(=O)Nc2cc(OC3CCc4cc(C(=O)NO)ccc4C3)ccn2)CC1 (centres unmarked) [Compound I-222, 1-ethyl-N-[4-({6-[(hydroxyamino)carbonyl]-1,2,3,4-tetrahydronaphthalen-2-yl}oxy)pyridin-2-yl]-4-methylpiperidine-4-carboxamide]	91
O=C(NO)c1ccc2c(c1)CCC(CCc1cccc(F)c1)C2 (centres unmarked) [Compound I-103, 6-[2-(3-fluorophenyl)ethyl]-N-hydroxy-5,6,7,8-tetrahydronaphthalene-2-carboxamide]	63
O=C(NO)c1ccc2c(c1)CC(NS(=O)(=O)c1ccccc1)CC2 (centres unmarked) [Compound I-96, N-hydroxy-7-[(phenylsulfonyl)amino]-5,6,7,8-tetrahydronaphthalene-2-carboxamide]	92
CN(C)Cc1cc(C(=O)NC2CCc3cc(C(=O)NO)ccc3C2)cc(C(F)(F)F)c1 (centres unmarked) [Compound I-171, 6-{[3-[(dimethylamino)methyl]-5-(trifluoromethyl)benzoyl]amino}-N-hydroxy-5,6,7,8-tetrahydronaphthalene-2-carboxamide]	77
O=C(NO)c1ccc2c(c1)CC(NCCc1ccccc1)CC2 (centres unmarked) [Compound I-81, N-hydroxy-7-[(2-phenylethyl)amino]-5,6,7,8-tetrahydronaphthalene-2-carboxamide]	84
CC(C)(C)C(=O)N1C2CCC1c1cc(C(=O)NO)ccc12 (centres unmarked) [Compound I-201, 9-(2,2-dimethylpropanoyl)-N-hydroxy-1,2,3,4-tetrahydro-1,4-epiminonaphthalene-6-carboxamide]	29
O=C(NO)c1ccc2c(c1)CC(NCc1ccncc1)CC2 (centres unmarked) [Compound I-85, N-hydroxy-7-[(pyridin-4-ylmethyl)amino]-5,6,7,8-tetrahydronaphthalene-2-carboxamide]	75
O=C(NO)c1ccc2c(c1)CC(c1ccc(N3CCNCC3)nc1)CC2 (centres unmarked) [Compound I-190, N-hydroxy-7-(6-piperazin-1-ylpyridin-3-yl)-5,6,7,8-tetrahydronaphthalene-2-carboxamide]	90
CCOC1CCc2ccc(C(=O)NO)cc2C1 (centres unmarked) [Compound I-118, 7-ethoxy-N-hydroxy-5,6,7,8-tetrahydronaphthalene-2-carboxamide]	75
O=C(NO)c1ccc2c(c1)C1CCC2N1C(=O)c1cc2ccccc2s1 (centres unmarked) [Compound I-204, 9-(1-benzothien-2-ylcarbonyl)-N-hydroxy-1,2,3,4-tetrahydro-1,4-epiminonaphthalene-6-carboxamide]	23
CC(C)(C)OC(=O)N1CCC(C(=O)Nc2cc(OC3CCc4cc(C(=O)NO)ccc4C3)ccn2)CC1 (centres unmarked) [Compound I-224, tert-butyl 4-({[4-({6-[(hydroxyamino)carbonyl]-1,2,3,4-tetrahydronaphthalen-2-yl}oxy)pyridin-2-yl]amino}carbonyl)piperidine-1-carboxylate]	94
CC(C)(C)C(=O)N[C@@H]1CCc2ccc(C(=O)NO)cc2C1 [Compound I-73, (7R)-7-[(2,2-dimethylpropanoyl)amino]-N-hydroxy-5,6,7,8-tetrahydronaphthalene-2-carboxamide]	73
Cc1nc(C(=O)N2C3CCC2c2cc(C(=O)NO)ccc23)cs1 (centres unmarked) [Compound I-208, N-hydroxy-9-[(2-methyl-1,3-thiazol-4-yl)carbonyl]-1,2,3,4-tetrahydro-1,4-epiminonaphthalene-6-carboxamide]	34

The remaining lines, values ahead:

inhibition at 0.412 µM [%]	SMILES
18	Cc1onc(-c2ccccc2Cl)c1C(=O)NC1CCCc2cc(C(=O)NO)ccc21 (centres unmarked) [Compound I-38, 3-(2-chlorophenyl)-N-{6-[(hydroxyamino)carbonyl]-1,2,3,4-tetrahydronaphthalen-1-yl}-5-methylisoxazole-4-carboxamide]
44	CC(C)(Oc1ccccc1Cl)C(=O)N[C@H]1CCCc2cc(C(=O)NO)ccc21 [Compound I-69, (5S)-5-{[2-(2-chlorophenoxy)-2-methylpropanoyl]amino}-N-hydroxy-5,6,7,8-tetrahydronaphthalene-2-carboxamide]
20	O=C(NO)c1ccc2c(c1)CCCC2NC(=O)C12CC3CC(CC(C3)C1)C2 (centres unmarked) [Compound I-21, N-{6-[(hydroxyamino)carbonyl]-1,2,3,4-tetrahydronaphthalen-1-yl}adamantane-1-carboxamide]
85	O=C(NO)c1ccc2c(c1)CC(c1ccccc1C(F)(F)F)CC2 (centres unmarked) [Compound I-185, N-hydroxy-7-[2-(trifluoromethyl)phenyl]-5,6,7,8-tetrahydronaphthalene-2-carboxamide]
92	CC(=O)Nc1cccc(C2CCc3ccc(C(=O)NO)cc3C2)c1 (centres unmarked) [Compound I-92, 7-[3-(acetylamino)phenyl]-N-hydroxy-5,6,7,8-tetrahydronaphthalene-2-carboxamide]
18	CC(C)(C)C(=O)NC1CCCc2cc(C(=O)NO)ccc21 (centres unmarked) [Compound I-6, 5-[(2,2-dimethylpropanoyl)amino]-N-hydroxy-5,6,7,8-tetrahydronaphthalene-2-carboxamide]
85	O=C(NO)c1ccc2c(c1)CC(Nc1cccc(Cl)c1)CC2 (centres unmarked) [Compound I-82, 7-[(3-chlorophenyl)amino]-N-hydroxy-5,6,7,8-tetrahydronaphthalene-2-carboxamide]
55	CC(C)(C)c1ccc(C(=O)NC2CCCc3cc(C(=O)NO)ccc32)cc1 (centres unmarked) [Compound I-16, 5-[(4-tert-butylbenzoyl)amino]-N-hydroxy-5,6,7,8-tetrahydronaphthalene-2-carboxamide]
70	O=C(NO)c1ccc2c(c1)CCCC2NC(=O)c1cn2cc(Cl)ccc2n1 (centres unmarked) [Compound I-29, 6-chloro-N-{6-[(hydroxyamino)carbonyl]-1,2,3,4-tetrahydronaphthalen-1-yl}imidazo[1,2-a]pyridine-2-carboxamide]
85	CC(=O)Nc1cccc(C2CCc3cc(C(=O)NO)ccc3C2)c1 (centres unmarked) [Compound I-102, 6-[3-(acetylamino)phenyl]-N-hydroxy-5,6,7,8-tetrahydronaphthalene-2-carboxamide]
60	Cc1ccc2[nH]c(C(=O)NC3CCCc4cc(C(=O)NO)ccc43)cc2c1 (centres unmarked) [Compound I-39, N-{6-[(hydroxyamino)carbonyl]-1,2,3,4-tetrahydronaphthalen-1-yl}-5-methyl-1H-indole-2-carboxamide]
42	COc1cccc(C2CCc3cc(C(=O)NO)ccc3C2)c1 (centres unmarked) [Compound I-110, N-hydroxy-6-(3-methoxyphenyl)-5,6,7,8-tetrahydronaphthalene-2-carboxamide]
69	O=C(NO)c1ccc2c(c1)CCCC2NC(=O)c1sc2ccccc2c1Cl (centres unmarked) [Compound I-32, 3-chloro-N-{6-[(hydroxyamino)carbonyl]-1,2,3,4-tetrahydronaphthalen-1-yl}-1-benzothiophene-2-carboxamide]
47	O=C(NO)c1ccc2c(c1)CCCC2NC(=O)c1cc2ccccc2o1 (centres unmarked) [Compound I-45, N-{6-[(hydroxyamino)carbonyl]-1,2,3,4-tetrahydronaphthalen-1-yl}-1-benzofuran-2-carboxamide]
53	O=C(NO)c1ccc2c(c1)CCC(c1cccc(C(F)(F)F)c1)C2 (centres unmarked) [Compound I-113, N-hydroxy-6-[3-(trifluoromethyl)phenyl]-5,6,7,8-tetrahydronaphthalene-2-carboxamide]
63	O=C(NO)c1ccc2c(c1)CCC[C@@H]2NC(=O)c1cn2cc(Cl)ccc2n1 [Compound I-70, 6-chloro-N-{(1S)-6-[(hydroxyamino)carbonyl]-1,2,3,4-tetrahydronaphthalen-1-yl}imidazo[1,2-a]pyridine-2-carboxamide]
